Experimental data taken from patent US20090186832A1 (priority 2008, published 2009).
Structures can show the parent of a compound that is named as a salt. Where two headings read alike, the source gives them in different places.

Tests used:
[1] = dog, in vivo, po
in vivo [2] = conditions: beagle, dog, po, 1 mg, Meptazinol AUCt
[3] = dog, in vivo
in vivo [4] = conditions: dog
[5] = cited from earlier work

SMILES: CCC1(c2cccc(O)c2)CCCCN(C)C1 (centres unmarked) [Meptazinol HCl]
- AUC (mean ngh/mL ± SD) [1]: 15.6 ± 7.4
- AUC(0-t) (in vivo [2]): 5.87 ng·h/mL

SMILES: CC(C)[C@H](NC(=O)Oc1ccc2c3c1OC1C(=O)CC[C@@]4(O)[C@@H](C2)N(C)CC[C@]314)C(=O)O (stereo partly drawn) [Oxymorphone valine carbamate HCl, (S)-2-[(4,5-Epoxy-14-hydroxy-17-methylmorphinan-6-one-3-yl)-oxycarbonylamino]-3-methylbutanoic acid Hydrochloride]
- Mean relative bioavailability % ([3]; Beagle, 0.5 mg/kg): 816%
- Cmax (mean ng/mL ± SD) ([3]; Beagle, po, 0.5 mg/kg): 21.6 ± 7.2 ng/mL
- plasma levels of the prodrug relative to the drug itself ([3]; beagle, po): approx. 4 fold
- AUC (mean ngh/mL ± SD) ([3]; po): 94.4 ± 33.3
- time for which plasma drug levels were maintained above 50% of Cmax, prodrug vs drug itself ([3]; po): almost twice as long
- AUC (in vivo [4]; Beagle, po, 0.5 mg, Oxymorphone valine carbamate AUC): 234 ng·h/mL
- AUC(0-t) (in vivo [4]; Beagle, po, 0.5 mg, Oxymorphone valine carbamate AUCt): 232 ng·h/mL
- Cmax (in vivo [4]; Beagle, po, 0.5 mg, Oxymorphone valine carbamate Cmax): 75 ng/mL

SMILES: CN1CC[C@]23c4c5ccc(O)c4O[C@H]2C(=O)CC[C@@]3(O)[C@H]1C5 [oxymorphone, 14-hydroxydihydromorphinone]
- AUC (in vivo [4]; iv, intravenous AUC value): 146 ng·h/mL
- half life ([5]; Adams and Ahdieh (2005)): ~7 h
- food effect: increase of Cmax values ([5]; Opana FDA labeling): ≤ 38%
- absolute oral bioavailability ([5]; Sloan et al. (2005)): 10%
